Laboratory results reported in US8614207B2, “Inhibitors of hepatitis C virus” (Presidio Pharmaceuticals, Inc., priority 2010, dated 2013).

Tested on: HCV1b replication (bicistronic genotype 1b replicon in Huh 7 cells)
Experiment: HCV replicon assay, 1b_Huh-Luc/Neo-ET cell line, luciferase readout
Format: cell-based, HCV genotype 1b
Conditions: Hepatitis C virus, Group 1 / Group 2, read-out: EC50, concentration effective to produce a half-maximal inhibition of HCV1b replication
Method: Biological activity of the compounds of the invention was determined using an HCV replicon assay. The 1b_Huh-Luc/Neo-ET cell line persistently expressing a bicistronic genotype 1b replicon in Huh 7 cells was obtained from ReBLikon GMBH. This cell line was used to test compound inhibition using luciferase enzyme activity readout as a measurement of compound inhibition of replicon levels.
On Day 1 (the day after plating), each compound is added in triplicate to the cells. Plates incubated for 72 […] prior to running the luciferase assay. Enzyme activity was measured using a Bright-Glo Kit (cat. number E2620) manufactured by Promega Corporation. The following equation was used to generate a percent control value for each compound. % Control=(Average Compound Value/Average Control)*100
The EC50 value was determined using GraphPad Prism and the following equation: Y=Bottom+(Top−Bottom)/(1+10^((Log IC50−X)*HillSlope))
EC50 values of compounds are repeated several times in the replicon assay.

Question: `CNC(=O)c1c(-c2ccc(Oc3ccc(F)cc3)cc2)oc2cc3c(cc12)C(C)OC(CS(C)(=O)=O)CN3S(C)(=O)=O` (centres unmarked) [Compound B192] was tested. Which EC50 did it give?
Answer: ≤ 10 nM

Question: With `CNC(=O)c1c(-c2ccc(F)cc2)oc2cc3c(cc12)[C@H](C)OCCN3S(C)(=O)=O` [Compound B45] as the molecule, how does the EC50 read?
Answer: ≤ 10 nM

Question: How did the EC50 turn out when `CNC(=O)c1c(-c2ccc(Oc3ccc(F)cc3)cc2)oc2cc3c(cc12)[C@@H](C)O[C@H](CS(C)(=O)=O)CN3S(C)(=O)=O` [Compound B216] was run?
Answer: 10 to 100 nM

Question: For `CNC(=O)c1c(-c2ccc(F)cc2)oc2cc3c(cc12)[C@@H](C)O[C@H](CS(C)(=O)=O)CN3S(C)(=O)=O` [Compound B215], which EC50 is on record?
Answer: 10 to 100 nM

Question: With `CNC(=O)c1c(-c2ccc(F)cc2)oc2cc3c(cc12)C(C)OCCN3S(C)(=O)=O` (centres unmarked) [Compound B22] as the molecule, how does the EC50 read?
Answer: 10 to 100 nM
